Test results taken from patent US4595688A, “Hexahydropyrrolo[2,1-a]isoquinoline derivatives and antidepressant use thereof” (priority 1984, dated 1986).
Where two headings read alike, the source gives them in different places.

System: depressant effects of tetrabenazine (TBZ)
Test: tetrabenazine (TBZ) antagonism assay in mice: exploratory activity (EA) and reversal of ptosis (Pt)
Type: in vivo
Details: for ED50: Mus musculus, ip; for percent inhibition at a certain dose, EA (exploratory activity): TBZ 32 mg/kg i.p.
Experimental: The utility of the novel compounds of this patent is based on a standard test for antidepressant agents involving antagonism of the depressant effects of tetrabenazine (TBZ). This is the "classical" tetrabenazine antagonism assay described in U.S. Pat. No. 3,787,577. In this test, mice are injected with a test compound 30 minutes prior to the injection of 32 mg/kg i.p. of TBZ, a drug which decreases normal exploratory activity and induces ptosis. After 30 minutes, the mice are tested for two parameters: the presence of normal exploratory activity (EA) and reversal of ptosis (Pt). A control group of mice is given only 32 mg/kg i.p. of TBZ. The biological activity of the novel compounds of this invention may be understood by some representative, nonlimiting examples, presented in Tables I and II.
Tables I lists the compounds tested by a compound number, structural formula, HX or acid addition salt form in which the compound was tested, test data, and internal code number (McN No.). Table II names the various Table I compounds.
*ED50 given in mg/kg for each parameter (except for percent
inhibition at a certain dose in mg/kg, given for four examples: XLIV, XLV

[1] = mice, i.p., compound 30 minutes prior to 32 mg/kg i.p. TBZ, normal exploratory activity
[2] = mice, i.p., compound 30 minutes prior to 32 mg/kg i.p. TBZ, reversal of ptosis
[3] = mice, i.p., compound 30 minutes prior to 32 mg/kg i.p. TBZ, normal exploratory activity, read-out: TBZ ED50, EA (exploratory activity)
[4] = mice, i.p., compound 30 minutes prior to 32 mg/kg i.p. TBZ, reversal of ptosis, read-out: TBZ ED50, Pt (reversal of ptosis)
[5] = read-out: TBZ ED50, EA (exploratory activity)
[6] = read-out: TBZ ED50, Pt (reversal of ptosis)

| SMILES | ED50 [3] | ED50 [4] | further results |
| --- | --- | --- | --- |
| OC1(c2ccccc2)CN2CCCC2c2ccccc21 (single isomer, unassigned) [XLIII, 1,2,3,5,6,10b-Hexahydro-6-phenylpyrrolo[2,1-a]isoquinolin-6-ol] | – | – | TBZ ED50, EA (exploratory activity) [1]: 33 mg/kg; TBZ ED50, Pt (reversal of ptosis) [2]: 5.0 mg/kg |
| Oc1ccc([C@@H]2CN3CCC[C@H]3c3ccccc32)cc1O (relative stereo) [XXXVII, 4-(1,2,3,5,6,10bα-Hexahydropyrrolo[2,1-a]isoquinolin-6a-yl)-1,2-benzenediol] | 30 mg/kg | 1.8 mg/kg | – |
| Clc1ccccc1[C@@H]1CN2CCC[C@@H]2c2ccccc21 (relative stereo) [LI, [6α,10bβ]-6-(2-chlorophenyl)-1,2,3,5,6,10b-hexahydropyrrolo[2,1-a]isoquinoline] | – | 0.2 mg/kg | percent inhibition at a certain dose, EA (exploratory activity) (mice, i.p., @ 60 mg/kg): 37% |
| Nc1ccc([C@@H]2CN3CCC[C@H]3c3ccccc32)cc1 (relative stereo) [XLVIII, 4-(1,2,3,5,6,10bα-Hexahydropyrrolo[2,1-a]isoquinoline-6α-yl)benzenamine] | 1.4 mg/kg | 0.41 mg/kg | – |
| C[C@@]1(c2ccccc2)CN2CCC[C@@H]2c2ccccc21 (relative stereo) [XXV, 1,2,3,5,6,10bβ-Hexahydro-6-methyl-6α-phenylpyrrolo[2,1-a]isoquinoline] | 27 mg/kg | 0.7 mg/kg | – |
| Oc1cccc([C@@H]2CN3CCC[C@H]3c3ccccc32)c1 (relative stereo) [XLIV, 3-(1,2,3,5,6,10bα-Hexahydropyrrolo[2,1-a]isoquinolin-6α-yl)phenol] | – | 3.1 mg/kg | percent inhibition at a certain dose, EA (exploratory activity) (mice, i.p., @ 30 mg/kg): 37% |
| c1ccc([C@@H]2CN3CCC[C@@H]3c3ccccc32)cc1 (relative stereo) [Xb, [6α,10bβ]-1,2,3,5,6,10b-Hexahydro-6-phenyl-pyrrolo[2,1-a]isoquinoline] | 0.34 mg/kg | 0.07 mg/kg | – |
| COc1cccc2c1[C@H](c1ccccc1)CN1CCC[C@H]21 (relative stereo) [XLVII, 1,2,3,5,6,10bβ-Hexahydro-7-methoxy-6α-phenylpyrrolo[2,1-a]isoquinoline] | – | – | ED50 [5]: 2.8 mg/kg; ED50 [6]: ~6.5 mg/kg |
| Clc1ccc([C@@H]2CN3CCC[C@@H]3c3cc(Cl)ccc32)cc1 (relative stereo) [XXXII, [6α,10bβ]-9-Chloro-6-(4-chlorophenyl)-1,2,3,5,6,10b-hexahydropyrrolo[2,1-a]isoquinoline] | 37 mg/kg | 4 mg/kg | – |
| COc1cccc([C@@H]2CN3CCC[C@@H]3c3ccccc32)c1 (relative stereo) [Compound XL, 1,2,3,5,6,10bβ-Hexahydro-6α-(3-methoxyphenyl)pyrrolo[2,1-a]isoquinoline] | ~0.17 mg/kg | ~0.07 mg/kg | – |
| C[C@@]1(c2ccccc2)CN2CCC[C@H]2c2ccccc21 (relative stereo) [XLVI, 1,2,3,5,6,10bα-Hexahydro-6-methyl-6α-phenylpyrrolo[2,1-a]isoquinoline] | 22.5 mg/kg | 16 mg/kg | – |
| Clc1ccc([C@@H]2CN3CCC[C@H]3c3ccccc32)cc1 (relative stereo) [XXX, 6α-(4-Chlorophenyl)-1,2,3,5,6,10bα-hexahydropyrrolo[2,1-a]isoquinoline] | – | – | ED50 [5]: 8.1 mg/kg; ED50 [6]: 5.4 mg/kg |
| Oc1cc2c(cc1O)[C@H]1CCCN1C[C@H]2c1ccccc1 (relative stereo) [XXVI, [6α,10bβ]-1,2,3,5,6,10b-Hexahydro-8,9-dihydroxy-6-phenylpyrrolo[2,1-a]isoquinoline] | 0.87 mg/kg | 0.33 mg/kg | – |
| O=[N+]([O-])c1ccc([C@@H]2CN3CCC[C@@H]3c3ccccc32)cc1 (relative stereo) [XXXVIII, 1,2,3,5,6,10bβ-hexahydro-6α-(4-nitrophenyl)-pyrrolo[2,1-a]isoquinoline] | 0.51 mg/kg | 0.15 mg/kg | – |
| Oc1ccc(C2CN3CCCC3c3ccccc32)cc1 (stereo not drawn) [XXXVI, 4-(1,2,3,5,6,10bα-Hexahydropyrrolo[2,1-a]isoquinolin-6α-yl)phenol] | – | – | TBZ ED50, EA (exploratory activity) [1]: ca. 14 mg/kg; TBZ ED50, Pt (reversal of ptosis) [2]: 10 mg/kg |
| Oc1ccc([C@@H]2CN3CCC[C@@H]3c3ccccc32)cc1O (relative stereo) [XXXV, 4-(1,2,3,5,6,10bβ-Hexahydropyrrolo[2,1-a]isoguinolin-6α-yl)benzene-1,2-diol] | 1.4 mg/kg | 0.13 mg/kg | – |

| SMILES | ED50 [3] | ED50 [4] | further results |
| --- | --- | --- | --- |
| c1ccc2c(c1)[C@H](C1CCCCC1)CN1CCC[C@H]21 (relative stereo) [XXVIII, [6α,10β]-6-Cyclohexyl-1,2,3,5,6,10b-hexahydropyrrolo[2,1-a]isoquinoline] | 6.4 mg/kg | 1.9 mg/kg | – |
| c1ccc([C@H]2Cc3ccccc3[C@@H]3CCCN23)cc1 (relative stereo) [LII, 1,2,3,5,6,10bα-Hexahydro-5α-phenylpyrrolo[2,1-a]isoquinoline] | – | – | ED50 [5]: ~30 mg/kg; ED50 [6]: 32 mg/kg |
| Clc1ccc([C@@H]2CN3CCC[C@H]3c3cc(Cl)ccc32)cc1 (relative stereo) [Compound XLII, [6α,10bα]-9-Chloro-6-(4-chlorophenyl)-1,2,3,5,6,10b-hexahydropyrrolo[2,1-a]isoquinoline] | 100 mg/kg | 37 mg/kg | – |
| COc1ccc([C@@H]2CN3CCC[C@H]3c3ccccc32)cc1 (relative stereo) [XXXI, 1,2,3,5,6,10bα-Hexahydro-6α-(4-methoxyphenyl)pyrrolo[2,1-a]isoquinoline] | ~60 mg/kg | 3 mg/kg | – |
| FC1(c2ccccc2)CN2CCCC2c2ccccc21 (stereo not drawn) [LIII, 6α-Fluoro-1,2,3,5,6,10bα-hexahydro-6-phenylpyrrolo[2,1-a]isoquinoline] | – | – | ED50 [6]: 1.2 mg/kg; percent inhibition at a certain dose, EA (exploratory activity) (mice, i.p., @ 40 mg/kg): 60% |
| C[C@]12CCCN1C[C@@H](c1ccccc1)c1ccccc12 (relative stereo) [IVb, [6α,10bβ]-1,2,3,5,6,10b-Hexahydro-10b-methyl-6-phenylpyrrolo[2,1-a]isoquinoline] | 9.2 mg/kg | 3.8 mg/kg | – |
| COc1ccc([C@@H]2CN3CCC[C@@H]3c3ccccc32)cc1 (relative stereo) [XXXIII, 1,2,3,5,6,10bβ-Hexahydro-6α-(4-methoxyphenyl)pyrrolo[2,1-a]isoquinoline] | 7 mg/kg | 0.19 mg/kg | – |
| OC1(c2ccccc2)CN2CCCC2c2ccccc21 (single isomer, unassigned) [XXXIV, 1,2,3,5,6,10b-Hexahydro-6-phenylpyrrolo[2,1-a]isoquinolin-6-ol] | – | – | TBZ ED50, EA (exploratory activity) [1]: 8.4 mg/kg; TBZ ED50, Pt (reversal of ptosis) [2]: 1.6 mg/kg |
| COc1ccc([C@@H]2CN3CCC[C@@H]3c3ccccc32)cc1OC (relative stereo) [XLV, 1,2,3,5,6,10bβ-Hexahydro-6α-(3,4-dimethoxyphenyl)pyrrolo[2,1-a]isoquinoline] | – | 0.14 mg/kg | percent inhibition at a certain dose, EA (exploratory activity) (mice, i.p., @ 30 mg/kg): 33% |
| Clc1ccc([C@@H]2CN3CCC[C@@H]3c3ccccc32)cc1 (relative stereo) [XXIX, [6α,10bβ]-6-(4-Chlorophenyl)-1,2,3,5,6,10b-hexahydropyrrolo[2,1-a]isoquinoline] | – | – | ED50 [5]: 0.27 mg/kg; ED50 [6]: 0.13 mg/kg |
| C[C@]12CCCN1C[C@@H](c1ccc(F)cc1)c1ccc(F)cc12 (relative stereo) [L, 9-Fluoro-6α-(4-fluorophenyl)-1,2,3,5,6,10b-hexahydro-10bβ-methylpyrrolo[2,1-a]isoquinoline] | 6.1 mg/kg | 5.6 mg/kg | – |
| COc1cc2c(cc1OC)[C@H]1CCCN1C[C@H]2c1ccccc1 (relative stereo) [XXVII, [6α,10bβ]-1,2,3,5,6,10b-Hexahydro-8,9-dimethoxy-6-phenylpyrrolo[2,1-a]isoquinoline] | 17 mg/kg | 7.2 mg/kg | – |
| COc1ccc2c(c1)[C@@H]1CCCN1C[C@H]2c1ccccc1 (relative stereo) [XXXIX, 1,2,3,5,6,10bα-Hexahydro-9-methoxy-6α-phenylpyrrolo[2,1-a]isoquionline] | ~40 mg/kg | 8 mg/kg | – |
| FC(F)(F)c1cccc([C@@H]2CN3CCC[C@@H]3c3ccccc32)c1 (relative stereo) [XLIX, 1,2,3,5,6,10bβ-Hexahydro-6α-[(3-trifluoromethyl)phenyl]-pyrrolo[2,1-a]isoquinoline] | 1.2 mg/kg | 0.43 mg/kg | – |
| Oc1cccc([C@@H]2CN3CCC[C@@H]3c3ccccc32)c1 (relative stereo) [Compound XLI, 3-(1,2,3,5,6,10bβ-Hexahydropyrrolo[2,1-a]isoquinolin-6α-yl)phenol] | > 10 mg/kg | 0.11 mg/kg | – |
| Clc1ccc([C@@H]2CN3CCC[C@H]3c3ccccc32)cc1Cl (relative stereo) [XXIV, 6α-(3,4-Dichlorophenyl)-1,2,3,5,6,10bα-hexahydropyrrolo[2,1-a]isoquinoline] | – | – | ED50 [5]: ~40 mg/kg; ED50 [6]: 8 mg/kg |
